Here are results for 2 compounds from PMC3142127, “Structural Analysis of Papain-Like NlpC/P60 Superfamily Enzymes with a Circularly Permuted Topology Reveals Potential Lipid Binding Sites” (PLoS ONE, 2011).

This assay addresses T1, BcPPNE (Bacillus cereus, UniProt Q74NK7).
T1 construct: gene BCE_A0238; weak tetramer in solution
T1 sequence (Q74NK7 1-195): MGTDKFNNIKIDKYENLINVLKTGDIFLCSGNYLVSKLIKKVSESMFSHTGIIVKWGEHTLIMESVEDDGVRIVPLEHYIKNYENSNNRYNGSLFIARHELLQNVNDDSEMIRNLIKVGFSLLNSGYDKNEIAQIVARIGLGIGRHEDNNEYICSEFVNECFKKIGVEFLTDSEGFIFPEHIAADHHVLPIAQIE
Briefly: Thermofluor (thermal shift). Type of assay: binding. The note with it: no shift value printed. (In DSF a fluorescence change marks the thermal transition of the protein.)

Molecules are shown by their SMILES.

On to `N=C(N)NCCC[C@H](N)C(=O)O` [L-arginine], for which the “Thermofluor (thermal shift)” value is “Thermofluor experiments indicated that BcPPNE also binds L-arginine and O-phospho-L-serine”.
Turning to `N[C@@H](COP(=O)(O)O)C(=O)O` [O-phospho-L-serine], the “Thermofluor (thermal shift)” value (crystals soaked at 1 mM showed no ligand density, L-Lys remained bound) was “Thermofluor experiments indicated that BcPPNE also binds L-arginine and O-phospho-L-serine”.
